The text below walks through data of patent US20250276983A1, “COMPOUNDS AND METHODS FOR MODULATING HER2” (IAMBIC THERAPEUTICS, INC., priority 2022, published 2025).

Read-outs that look alike come from different tables or passages of the source. Where only a bound is given, the exact number is not on record here.

Holding throughout (type): cell-based
One experiment relates to BaF3_EGFRWT cells. In words: Cell growth inhibition assay, BaF3_EGFRWT. Particulars: 80 ng/mL recombinant human EGF, 3 days treatment, CellTiterGlo 2.0, read-out: EGFR WT IC50 (nM), cell growth inhibition. (In ATP-based viability assays light output follows the ATP content of the culture.)
The test system of another experiment is BaF3_HER2YVMA cells. In words: Cell growth inhibition assay, BaF3_HER2YVMA. The conditions noted are these: BaF3_HER2YVMA cells, 3 days treatment, CellTiterGlo 2.0, read-out: HER2-YVMA IC50 (nM), cell growth inhibition.
The next experiment deals with BaF3_HER2WT cells. In words: Cell growth inhibition assay, BaF3_HER2WT. Particulars: 3 days treatment, CellTiterGlo 2.0, read-out: HER2 WT IC50 (nM), cell growth inhibition.

As usually defined, the IC50 is the concentration at which inhibition is half-maximal. For the compound `C=CC(=O)N1C[C@H]2C[C@@H]1C[C@H]2c1ccn2ncnc(Nc3ccc(Oc4ccn5ncnc5c4)c(C)c3)c12` (relative stereo) [Example 104, Rel-1-[(1S,4S,5R)-5-{4-[(3-methyl-4-{[1,2,4]triazolo[1,5-a]pyridin-7-yloxy}phenyl)amino]pyrrolo[2,1-f][1,2,4]triazin-5-yl}]-2-azabicyclo[2.2.1]heptan-2-yl]prop-2-en-1-one], the concentration for half-maximal inhibition (IC50) was in the range of 1500 to 5000 nM in the experiment with BaF3_EGFRWT cells (72 h), 1500 to 5000 nM with BaF3_HER2YVMA cells (72 h) and 500 to 1500 nM with BaF3_HER2WT cells (72 h).
For `Cc1cc(Nc2ncnn3ccc(C4CCN(C(=O)/C=C/CN(C)C)C4)c23)ccc1Oc1ccn2ncnc2c1` (single isomer, unassigned) [Examples 99 and 100, first eluting isomer, (E)-1-(3-(4-((4-([1,2,4]triazolo[1,5-a]pyridin-7-yloxy)-3-methylphenyl)amino)pyrrolo[2,1-f][1,2,4]triazin-5-yl)pyrrolidin-1-yl)-4-(dimethylamino)but-2-en-1-one], the IC50 with BaF3_EGFRWT cells (72 h) is 1500 to 5000 nM; in the experiment on BaF3_HER2YVMA cells, under 200 nM; in the experiment on BaF3_HER2WT cells (72 h), under 200 nM.
In the case of `Cc1cc(Nc2ncnn3ccc(C4CCN(C(=O)/C=C/CN(C)C)C4)c23)ccc1Oc1ccn2ncnc2c1` (single isomer, unassigned) [Examples 99 and 100, second eluting isomer, (E)-1-(3-(4-((4-([1,2,4]triazolo[1,5-a]pyridin-7-yloxy)-3-methylphenyl)amino)pyrrolo[2,1-f][1,2,4]triazin-5-yl)pyrrolidin-1-yl)-4-(dimethylamino)but-2-en-1-one], the values for the IC50 in the experiment on BaF3_EGFRWT cells, with BaF3_HER2YVMA cells and with BaF3_HER2WT cells were 1500 to 5000 nM, 500 to 1500 nM and under 200 nM, respectively.
For `Cc1cc(Nc2ncnn3ccc(C4CCCN(C(=O)/C=C/CN(C)C)C4)c23)ccc1Oc1ccn2ncnc2c1` (single isomer, unassigned) [Examples 107 and 108, first eluting isomer, (E)-1-(3-(4-((4-([1,2,4]triazolo[1,5-a]pyridin-7-yloxy)-3-methylphenyl)amino)pyrrolo[2,1-f][1,2,4]triazin-5-yl)piperidin-1-yl)-4-(dimethylamino)but-2-en-1-one], the results for the IC50 with BaF3_EGFRWT cells (72 h), in the experiment with BaF3_HER2YVMA cells and in the experiment with BaF3_HER2WT cells were 1500 to 5000 nM, 500 to 1500 nM and under 200 nM, respectively.
`Cc1cc(Nc2ncnn3ccc(C4CCCN(C(=O)/C=C/CN(C)C)C4)c23)ccc1Oc1ccn2ncnc2c1` (single isomer, unassigned) [Examples 107 and 108, second eluting isomer, (E)-1-(3-(4-((4-([1,2,4]triazolo[1,5-a]pyridin-7-yloxy)-3-methylphenyl)amino)pyrrolo[2,1-f][1,2,4]triazin-5-yl)piperidin-1-yl)-4-(dimethylamino)but-2-en-1-one]: the IC50 lay within 1500 to 5000 nM with BaF3_EGFRWT cells, 1500 to 5000 nM in the experiment on BaF3_HER2YVMA cells and 500 to 1500 nM in the experiment on BaF3_HER2WT cells.
As to `Cc1cc(Nc2ncnn3ccc(C4CCCN(C(=O)/C=C/CN(C)C)CC4)c23)ccc1Oc1ccn2ncnc2c1` (single isomer, unassigned) [Examples 109 and 110, first eluting isomer, (E)-1-(4-(4-((4-([1,2,4]triazolo[1,5-a]pyridin-7-yloxy)-3-methylphenyl)amino)pyrrolo[2,1-f][1,2,4]triazin-5-yl)azepan-1-yl)-4-(dimethylamino)but-2-en-1-one], the IC50 in the experiment with BaF3_EGFRWT cells (72 h) is 1500 to 5000 nM; in the experiment with BaF3_HER2YVMA cells (72 h), under 200 nM; in the experiment with BaF3_HER2WT cells (72 h), under 200 nM.
`Cc1cc(Nc2ncnn3ccc(C4CCCN(C(=O)/C=C/CN(C)C)CC4)c23)ccc1Oc1ccn2ncnc2c1` (single isomer, unassigned) [Examples 109 and 110, second eluting isomer, (E)-1-(4-(4-((4-([1,2,4]triazolo[1,5-a]pyridin-7-yloxy)-3-methylphenyl)amino)pyrrolo[2,1-f][1,2,4]triazin-5-yl)azepan-1-yl)-4-(dimethylamino)but-2-en-1-one]: the IC50 with BaF3_EGFRWT cells fell in the range of 1500 to 5000 nM.
With `C=CC(=O)N1CCCC(c2ccn3ncnc(Nc4ccc(Oc5ccn6ncnc6c5)c(C)c4)c23)CC1` (single isomer, unassigned) [Examples 111 and 112, first eluting isomer, 1-(4-(4-((4-([1,2,4]triazolo[1,5-a]pyridin-7-yloxy)-3-methylphenyl)amino)pyrrolo-[2,1-f][1,2,4]triazin-5-yl)azepan-1-yl)prop-2-en-1-one], the IC50 is 1500 to 5000 nM in the experiment with BaF3_EGFRWT cells (72 h), under 200 nM in the experiment on BaF3_HER2YVMA cells (72 h) and under 200 nM with BaF3_HER2WT cells (72 h).
For the compound `C=CC(=O)N1CCCC(c2ccn3ncnc(Nc4ccc(Oc5ccn6ncnc6c5)c(C)c4)c23)CC1` (single isomer, unassigned) [Examples 111 and 112, second eluting isomer, 1-(4-(4-((4-([1,2,4]triazolo[1,5-a]pyridin-7-yloxy)-3-methylphenyl)amino)pyrrolo-[2,1-f][1,2,4]triazin-5-yl)azepan-1-yl)prop-2-en-1-one], the IC50 in the experiment with BaF3_EGFRWT cells was 1500 to 5000 nM; with BaF3_HER2YVMA cells, under 200 nM.
For the compound `Cc1cc(Nc2ncnn3ccc(C4CC5CCC(C4)N5C(=O)/C=C/CN(C)C)c23)ccc1Oc1ccn2ncnc2c1` (single isomer, unassigned) [Examples 122 and 123, first eluting isomer, (E)-1-(-3-(4-((4-([1,2,4]triazolo[1,5-a]pyridin-7-yloxy)-3-methylphenyl)amino)pyrrolo[2,1-f][1,2,4]triazin-5-yl)-8-azabicyclo[3.2.1]octan-8-yl)-4-(dimethylamino)but-2-en-1-one], the IC50 in the experiment with BaF3_EGFRWT cells was 500 to 1500 nM; with BaF3_HER2YVMA cells (72 h), under 200 nM; in the experiment on BaF3_HER2WT cells (72 h), under 200 nM.
With `Cc1cc(Nc2ncnn3ccc(C4CC5CCC(C4)N5C(=O)/C=C/CN(C)C)c23)ccc1Oc1ccn2ncnc2c1` (single isomer, unassigned) [Examples 122 and 123, second eluting isomer, (E)-1-(3-(4-((4-([1,2,4]triazolo[1,5-a]pyridin-7-yloxy)-3-methylphenyl)amino)pyrrolo[2,1-f][1,2,4]triazin-5-yl)-8-azabicyclo[3.2.1]octan-8-yl)-4-(dimethylamino)but-2-en-1-one], the figures for the IC50 with BaF3_EGFRWT cells, with BaF3_HER2YVMA cells and in the experiment with BaF3_HER2WT cells were 1500 to 5000 nM, 200 to 500 nM and under 200 nM, respectively.
`C=CC(=O)N1C2CCC1CC(c1ccn3ncnc(Nc4ccc(Oc5ccn6ncnc6c5)c(C)c4)c13)C2` (single isomer, unassigned) [Examples 124 and 125, first eluting isomer, 1-(3-(4-((4-([1,2,4]triazolo[1,5-a]pyridin-7-yloxy)-3-methylphenyl)amino)pyrrolo[2,1-f][1,2,4]triazin-5-yl)-8-azabicyclo[3.2.1]octan-8-yl)prop-2-en-1-one]: the IC50 in the experiment with BaF3_EGFRWT cells (72 h), in the experiment on BaF3_HER2YVMA cells (72 h) and with BaF3_HER2WT cells (72 h) was under 200 nM each time.
In the case of `C=C(CN(C)C)C(=O)N1C2CCC1CC(c1ccn3ncnc(Nc4ccc(Oc5ccn6ncnc6c5)c(C)c4)c13)C2` (single isomer, unassigned) [Examples 126 and 127, first eluting isomer, 1-(3-(4-((4-([1,2,4]triazolo[1,5-a]pyridin-7-yloxy)-3-methylphenyl)amino)pyrrolo[2,1-f][1,2,4]triazin-5-yl)-8-azabicyclo[3.2.1]octan-8-yl)-2-((dimethylamino)methyl)prop-2-en-1-one], the concentration for half-maximal inhibition (IC50) was 1500 to 5000 nM with BaF3_EGFRWT cells (72 h), 200 to 500 nM with BaF3_HER2YVMA cells and under 200 nM in the experiment with BaF3_HER2WT cells (72 h).
For the compound `C=C(CN(C)C)C(=O)N1C2CCC1CC(c1ccn3ncnc(Nc4ccc(Oc5ccn6ncnc6c5)c(C)c4)c13)C2` (single isomer, unassigned) [Examples 126 and 127, second eluting isomer, 1-(3-(4-((4-([1,2,4]triazolo[1,5-a]pyridin-7-yloxy)-3-methylphenyl)amino)pyrrolo[2,1-f][1,2,4]triazin-5-yl)-8-azabicyclo[3.2.1]octan-8-yl)-2-((dimethylamino)methyl)prop-2-en-1-one], the IC50 in the experiment on BaF3_EGFRWT cells was 1500 to 5000 nM; in the experiment on BaF3_HER2YVMA cells, 500 to 1500 nM; with BaF3_HER2WT cells it was under 200 nM.
In the case of `C=C(CN(C)C)C(=O)N1CC2CCC1CC2c1ccn2ncnc(Nc3ccc(Oc4ccn5ncnc5c4)c(C)c3)c12` (single isomer, unassigned) [Examples 135 and 136, first eluting isomer, 1-(5-(4-((4-([1,2,4]triazolo[1,5-a]pyridin-7-yloxy)-3-methylphenyl)amino)pyrrolo[2,1-f][1,2,4]triazin-5-yl)-2-azabicyclo[2.2.2]octan-2-yl)-2-((dimethylamino)methyl)prop-2-en-1-one], the IC50 in the experiment with BaF3_EGFRWT cells is 1500 to 5000 nM; with BaF3_HER2YVMA cells (72 h), under 200 nM; in the experiment with BaF3_HER2WT cells (72 h), under 200 nM.
Regarding `Cc1cc(Nc2ncnn3ccc(C4CCN(C(=O)/C=C/CN(C)C)CC4)c23)ccc1Oc1ccn2ncnc2c1` [Example 21, (E)-1-(4-(4-((4-([1,2,4]triazolo[1,5-a]pyridin-7-yloxy)-3-methylphenyl)amino)pyrrolo[2,1-f][1,2,4]triazin-5-yl)piperidin-1-yl)-4-(dimethylamino)but-2-en-1-one], the IC50 in the experiment with BaF3_EGFRWT cells (72 h) fell in the range of 1500 to 5000 nM.
Regarding `COC1CN(C/C=C/C(=O)N2CC(c3ccn4ncnc(Nc5ccc(Oc6ccn7ncnc7c6)c(C)c5)c34)C2)C1` [Example 39, (E)-1-(3-(4-((4-([1,2,4]triazolo[1,5-a]pyridin-7-yloxy)-3-methylphenyl)amino)pyrrolo[2,1-f][1,2,4]triazin-5-yl)azetidin-1-yl)-4-(3-methoxyazetidin-1-yl)but-2-en-1-one], the IC50 in the experiment on BaF3_EGFRWT cells (72 h) is 1500 to 5000 nM; in the experiment with BaF3_HER2WT cells (72 h), under 200 nM.
